Experimental data: EP4227307A1 (Genzyme Corporation, priority 2022, dated 2023)
Structures can show the parent of a compound that is named as a salt.

Target: T1, human recombinant 6His-Nterm SHP2 full-length (Thr2-Arg593) (Homo sapiens, UniProt Q06124)
T1 construct: 6His-Nterm SHP2 full-length (Thr2-Arg593, R&D system); 6His (N); purchased R&D system
T1 sequence (Q06124 2-593): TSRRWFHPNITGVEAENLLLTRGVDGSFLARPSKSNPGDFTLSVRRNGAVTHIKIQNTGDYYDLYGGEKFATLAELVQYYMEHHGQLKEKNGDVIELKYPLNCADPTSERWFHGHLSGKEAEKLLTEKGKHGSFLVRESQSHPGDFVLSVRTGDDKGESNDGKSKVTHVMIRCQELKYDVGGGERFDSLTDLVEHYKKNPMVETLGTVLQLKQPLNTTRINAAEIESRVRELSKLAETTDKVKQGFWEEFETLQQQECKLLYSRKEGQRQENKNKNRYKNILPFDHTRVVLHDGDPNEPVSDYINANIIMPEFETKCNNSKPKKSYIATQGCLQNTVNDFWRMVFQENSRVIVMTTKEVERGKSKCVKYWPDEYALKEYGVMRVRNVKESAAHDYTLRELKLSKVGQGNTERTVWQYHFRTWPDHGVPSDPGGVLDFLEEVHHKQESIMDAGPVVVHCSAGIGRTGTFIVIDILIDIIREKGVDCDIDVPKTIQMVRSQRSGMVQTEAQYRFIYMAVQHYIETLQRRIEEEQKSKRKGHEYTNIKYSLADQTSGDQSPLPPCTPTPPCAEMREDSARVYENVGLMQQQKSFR
Assay: SHP2 Phosphatase Assay (DiFMUP fluorescence)
Assay type: biochemical
Settings: SHP2 0.2 nM pre-incubated with 100 nM bi-phosphorylated activating peptide; compound 1000-0.05 nM, 30 min pre-incubation; DiFMUP 20 µM, 45 min, room temperature; 10-concentration dose-response
Procedure: Inhibition of SHP2 phosphatase activity was evaluated using human recombinant 6His-Nterm SHP2 full-length (Thr2-Arg593, R&D system), NsCs bi-phosphorylated activating peptide (NH2-LN(pY)AQLWHA(PEG8)LTI(pY)ATIRRF-Amide.acetate, Thermofischer Scientific) and DiFMUP as surrogate phosphatase substrate (Molecular Probes). All reactions were performed at room temperature in 384-well black polystyrene non-binding plate (Corning) with the assay buffer (50 mM HEPES-NaOH pH 7.2, 100 mM NaCl, 0.5 mM EDTA, 0.001% Brij35 including 0.02% BSA and 1 mM DTT added extemporaneously). SHP2 was pre-incubated at least 10 min with the activating peptide (0.2 nM and 100 nM, respectively). 10 µL of this mixture was added to the assay plate, that already contained 15 nL of the compound (1000-0.05 nM). After 30 min pre-incubation, the enzymatic reaction was initiated by the addition of 5 µL DiFMUP in assay buffer without BSA (20 µM). The reaction was stopped by the addition of 15 µL sodium pervanadate solution (100 µM) after 45 min incubation. The fluorescence signal was measured at excitation and emission wavelengths of 350 nm and 450 nm, respectively, using a Pherastar instrument (BMG-LabTech). Percentage of inhibition […] were calculated from the fluorescence signal at 450 nm of the positive and negative control using the following formula: I% = ((signal Max−signal Sample)/(signal Max−signal Min control)) × 100 [formula]
Positive control (Max): corresponds to the maximum fluorescence signal obtained in the presence of 15 nL DMSO replacing the inhibitor in the pre-incubation step.
Negative control (Min): corresponds to the minimum signal obtained in the presence of 1 µM of RMC-4550, the structure of which is shown below: [drawing 464]
The IC50 were then calculated from a dose-response curve of 10 concentrations of tested compound using the 4-parameter logistic model: I% = A + (C)/(1 + exp(−B×log(X)−M)) [formula]
The parameters A and (A+C) are the lower and upper limits, B is the slope of the curve at the inflexion point, M parameter is the logarithm of the abscissa at the inflexion point, and X is the concentration of compound.

Structure (SMILES) | IC50
Cc1cc2c(cn1)CC1(CCN(c3nc(C)c(-c4ccccc4)n4nccc34)CC1)[C@@H]2N [Compound 114, (5S)-3-methyl-1'-(6-methyl-7-phenyl-pyrazolo[1,5-a]pyrazin-4-yl)spiro[5,7-dihydrocyclopenta[c]pyridine-6,4'-piperidine]-5-amine hydrochloride] | 0.01 µM
Cc1nc(N2CCC3(CC2)Cc2scnc2[C@H]3N)c2ccnn2c1-c1cccc(F)c1F [Compound 65, (4S)-1'-[7-(2,3-difluorophenyl)-6-methyl-pyrazolo[1,5-a]pyrazin-4-yl]spiro[4,6-dihydrocyclopenta[d]thiazole-5,4'-piperidine]-4-amine hydrochloride] | 0.022 µM
Cc1nc(N2CCC3(CC2)Cc2cc(F)c(F)cc2[C@H]3N)c2ccnn2c1-c1cnn(C)c1C [Compound 80, (1S)-1'-[7-(1,5-dimethylpyrazol-4-yl)-6-methyl-pyrazolo[1,5-a]pyrazin-4-yl]-5,6-difluoro-spiro [indane-2,4'-piperidine]-1-amine hydrochloride] | 0.017 µM
Cc1nc2c(s1)CC1(CCN(c3nc(C)c(-c4ccnc(C)c4Cl)n4nccc34)CC1)[C@@H]2N [Compound 105, (4S)-1'-[7-(3-chloro-2-methyl-4-pyridyl)-6-methyl-pyrazolo[1,5-a]pyrazin-4-yl]-2-methyl-spiro[4,6-dihydrocyclopenta[d]thiazole-5,4'-piperidine]-4-amine hydrochloride] | 0.006 µM
Cc1nc(N2CCC3(CC2)Oc2ccccc2[C@H]3N)c2ccnn2c1-c1cccc(Cl)c1Cl [Compound 19, (3R)-1'-[7-(2,3-dichlorophenyl)-6-methyl-pyrazolo [1 ,5-a]pyrazin-4-yl]spiro[3H-benzofuran-2,4'-piperidine]-3-amine] | 0.102 µM
Cc1nc(N2CCC3(CC2)Cc2ncccc2[C@H]3N)c2ccnn2c1-c1cccs1 [Compound 99, (5S)-1'-[6-methyl-7-(2-thienyl)pyrazolo[1,5-a]pyrazin-4-yl]spiro [5,7-dihydrocyclopenta[b]pyridine-6,4'-piperidine]-5-amine hydrochloride] | 0.009 µM
Cc1nc2c(s1)[C@@H](N)C1(CCN(c3nc(C)c(-c4ccnc(C)c4Cl)n4nccc34)CC1)C2 [Compound 84, (6S)-1'-[7-(3-chloro-2-methyl-4-pyridyl)-6-methyl-pyrazolo[1,5-a]pyrazin-4-yl]-2-methyl-spiro[4,6-dihydrocyclopenta[d]thiazole-5,4'-piperidine]-6-amine hydrochloride] | 0.005 µM
Cc1nc(N2CCC3(CC2)Cc2ncccc2[C@H]3N)c2ccnn2c1-c1ccnnc1 [Compound 159, (5S)-1'-(6-methyl-7-pyridazin-4-yl-pyrazolo[1,5-a]pyrazin-4-yl)spiro[5,7-dihydrocyclopenta[b]pyridine-6,4'-piperidine]-5-amine hydrochloride] | 0.649 µM
Cc1ccc2c(n1)CC1(CCN(c3nc(C)c(-c4ccccc4F)n4nccc34)CC1)[C@@H]2N [Compound 106, (5S)-1'-[7-(2-fluorophenyl)-6-methyl-pyrazolo[1,5-a]pyrazin-4-yl]-2-methyl-spiro[5,7-dihydrocyclopenta[b]pyridine-6,4'-piperidine]-5-amine hydrochloride] | 0.014 µM
Cc1nccc(-c2c(C)nc(N3CCC4(CC3)Cc3ncccc3[C@H]4N)c3c(F)cnn23)c1Cl [Compound 144, (5S)-1'-[7-(3-chloro-2-methyl-4-pyridyl)-3-fluoro-6-methyl-pyrazolo[1,5-a]pyrazin-4-yl]spiro[5,7-dihydrocyclopenta[b]pyridine-6,4'-piperidine]-5-amine hydrochloride] | 0.017 µM

Continued, values first:

IC50 | Structure (SMILES)
0.015 µM | Cc1nccc(-c2c(C)nc(N3CCC4(CC3)Cc3ncc(F)cc3[C@H]4N)c3ccnn23)c1Cl [Compound 28, (5S)-1'-[7-(3-chloro-2-methyl-4-pyridyl)-6-methyl-pyrazolo[1,5-a]pyrazin-4-yl]-3-fluoro-spiro[5,7-dihydrocyclopenta[b]pyridine-6,4'-piperidine] -5-amine]
0.02 µM | Cc1nccc(-c2c(C)nc(N3CCC4(CC3)Oc3ncccc3[C@H]4N)c3ccnn23)c1Cl [Compound 15, (3R)-1'-[7-(3-chloro-2-methyl-4-pyridyl)-6-methyl-pyrazolo[1,5-a]pyrazin-4-yl]spiro[3H-furo[2,3-b]pyridine-2,4'-piperidine]-3-amine]
0.011 µM | Cc1nc(N2CCC3(CC2)Cc2cc(CO)ncc2[C@H]3N)c2ccnn2c1-c1ccccc1F [Compound 59, [(7S)-7-amino-1'-[7-(2-fluorophenyl)-6-methyl-pyrazolo[1,5-a]pyrazin-4-yl]spiro[5,7-dihydrocyclopenta[c]pyridine-6,4'-piperidine]-3-yl]methanol]
> 1 µM | Cc1nc(N2CCC3(CC2)Cc2ncccc2[C@H]3N)c2c(CO)cnn2c1-c1ccccc1 [Compound 145, [4-[(5S)-5-aminospiro[5,7-dihydrocyclopenta[b]pyridine-6,4'-piperidine]-1'-yl]-6-methyl-7-phenyl-pyrazolo[1,5-a]pyrazin-3-yl]methanol]
0.011 µM | Cc1nc(N2CCC3(CC2)Cc2ncccc2[C@H]3N)c2ccnn2c1-c1c(F)cccc1F [Compound 115, (5S)-1'-[7-(2,6-difluorophenyl)-6-methyl-pyrazolo[1,5-a]pyrazin-4-yl]spiro[5,7-dihydrocyclopenta[b]pyridine-6,4'-piperidine]-5-amine]
0.437 µM | Cc1nc(N2CCC3(CC2)Cc2ncccc2[C@H]3N)c2ccnn2c1-c1ccnc(N2CCOCC2)c1F [Compound 198, (5S)-1'-[7-(3-fluoro-2-morpholino-4-pyridyl)-6-methyl-pyrazolo[1,5-a]pyrazin-4-yl]spiro[5,7-dihydrocyclopenta[b]pyridine-6,4'-piperidine]-5-amine]
0.004 µM | Cc1nc(N2CCC3(CC2)Cc2ncccc2[C@H]3N)c2ccnn2c1-c1ccc(CC#N)cc1 [Compound 189, 2-[4-[6-methyl-4-[(5S)-5-aminospiro[5,7-dihydrocyclopenta[b]pyridine-6,4'-piperidine]-1'-yl]pyrazolo[1,5-a]pyrazin-7-yl]phenyl]acetonitrile]
0.008 µM | Cc1nc(N2CCC3(CC2)Cc2ccc(C#N)cc2[C@H]3N)c2ccnn2c1-c1cnn(C)c1C (single isomer, unassigned) [Compound 211]
0.005 µM | Cc1nc(N2CCC3(CC2)Cc2ncccc2[C@H]3N)c2ccnn2c1-c1ccccc1 [Compound 39, (5S)-1'-(6-methyl-7-phenyl-pyrazolo[1,5-a]pyrazin-4-yl)spiro[5,7-dihydrocyclopenta[b]pyridine-6,4'-piperidine]-5-amine]
0.004 µM | Cc1nc(N2CCC3(CC2)Cc2ncccc2[C@H]3N)c2ccnn2c1-c1ccc2c(c1)OCC2 [Compound 162, (5S)-1'-[7-(2,3-dihydrobenzofuran-6-yl)-6-methyl-pyrazolo[1,5-a]pyrazin-4-yl]spiro[5,7-dihydrocyclopenta[b]pyridine-6,4'-piperidine]-5-amine]
0.012 µM | Cc1nc(N2CCC3(CC2)Cc2ncccc2[C@H]3N)c2ccnn2c1-c1sccc1Cl [Compound 38, (5S)-1'-[7-(3-chloro-2-thienyl)-6-methyl-pyrazolo[1,5-a]pyrazin-4-yl]spiro[5,7-dihydrocyclopenta[b]pyridine-6,4'-piperidine]-5-amine]
0.01 µM | COc1cccc2c1CC1(CCN(c3nc(C)c(-c4ccccc4F)n4nccc34)CC1)[C@@H]2N [Compound 109, (1S)-1'-[7-(2-fluorophenyl)-6-methyl-pyrazolo[1,5-a]pyrazin-4-yl] -4-methoxy-spiro[indane-2,4'-piperidine]-1-amine]
